Results on 18 compounds are retold here after patent US12365674B2, “Inhibitors of histone deacetylase useful for the treatment or prevention of HIV infection” (Merck Sharp & Dohme LLC, priority 2019, dated 2025).

Bounds are passed on as bounds.

The experiment has as its target T1, human HDAC8 (Homo sapiens, UniProt Q9BY41).
T1 construct: purchased Enzo Life Sciences BML-SE145-0100
T1 sequence (Q9BY41 1-377): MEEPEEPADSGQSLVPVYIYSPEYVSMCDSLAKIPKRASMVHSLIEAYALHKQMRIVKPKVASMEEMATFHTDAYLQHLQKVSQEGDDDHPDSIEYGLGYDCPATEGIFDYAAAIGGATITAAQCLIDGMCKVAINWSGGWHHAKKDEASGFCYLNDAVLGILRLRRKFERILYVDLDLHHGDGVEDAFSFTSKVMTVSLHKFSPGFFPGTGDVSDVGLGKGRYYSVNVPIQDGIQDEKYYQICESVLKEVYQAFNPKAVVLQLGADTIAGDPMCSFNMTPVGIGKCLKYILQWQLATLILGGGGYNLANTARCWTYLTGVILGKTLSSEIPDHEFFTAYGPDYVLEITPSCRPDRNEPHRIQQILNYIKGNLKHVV
Kind of experiment: Human HDAC enzyme inhibitor Fluor-de-Lys assay, HDAC8. In kind it is biochemical. To be noted: 1.3 nM enzyme, 200 μM substrate BML-KI178, 3 h pre-incubation, 60 min reaction; read-out: HDAC8_IC50. The source says:
Recombinant human HDAC8 (catalog number BML-SE145-0100) and HDAC10 (catalog number BML-SE559-0050) enzymes, HDAC substrates BML-KI104 and BML-KI178, and HDAC developer solutions BML-KI105 and BML-KI176 were purchased from Enzo Life Sciences (Farmingdale, NY). Recombinant human HDAC5 and HDAC11 were purchased from BPS Bioscience (San Diego, CA)(catalog numbers 50045 and 50021). Substrate Boc-Lys(TFA)-AMC was obtained from Bachem (Bupendorf, Switzerland) (catalog number 1-1985). HDAC inhibitor suberoylanilide hydroxamic acid (SAHA) was obtained from Indofine (Hillsborough Township, NJ) and trichostatin A (TSA) was obtained from Sigma-Aldrich (St. Louis, MO). […] HEPES pH 8.0 was obtained from Boston BioProducts (Ashland, MA), Tween-20 from Fisher Scientific (Hampton, NH)(catalog number BP337), TCEP from Calbiochem and 7.5% bovine serum albumin (BSA) from Life Technologies (Carlsbad, CA) (catalog number 15260037). 384-well, black assay plates were obtained from Corning (Corning, NY) (catalog number 3575).
The histone deacetylase activities of HDAC1, HDAC2, HDAC3, HDAC6, and HDAC8 were measured in modified Fluor-de-Lys assays in 384-well format. In this assay, HDAC enzymes are initially incubated with an ε-acetyl (or -trifluoroacetyl)-L-lysine-containing substrate with a C-terminal amide having aminomethylcoumarin as the amine component. HDACs cleave the ε-acetyl group, rendering the resulting product susceptible to AMC cleavage by trypsin. The released AMC is then detected by its fluorescence.
The HDAC 1, 2 assays employed buffer A, which contained 20 mM HEPES, pH 8.0, 1 mM MgCl2, 137 mM NaCl, 2.7 mM KCl, 0.05% BSA. The HDAC3/SMRT assay employed buffer B, consisting of 20 mM HEPES, pH 8.0, 1 mM MgCl2, 50 mM NaCl, 2.7 mM KCl, 0.05% BSA, 0.005% Tween 20, and 10 μM IP4. The HDAC6 assay employed buffer C, consisting of 20 mM HEPES, pH 8.0, 1 mM MgCl2, 137 mM NaCl, 2.7 mM KCl, 0.5 mM TCEP (Calbiochem) and 0.05% BSA. The HDAC8 assay employed buffer D, consisting of 20 mM HEPES, pH 8.0, 1 mM MgCl2, 100 mM NaCl, 20 mM KCl, 0.1% n-octyl-β-D-glucoside (Anatrace, Maumee, OH) and 0.05% BSA. All steps were performed at room temperature (23° C.). The assay was performed by pre-incubating serial dilutions of test compounds with the target HDAC prior to initiation with substrate. Each compound was titrated in a 10-point dose response, using a 1:3 fold dilution scheme, with 0.15 ul of solution added by ECHO555 to the plate, followed by the addition of 20 μl of the appropriate HDAC isoform diluted in appropriate assay buffer. […] Final conditions used for each assay were: 1. HDAC 1, 0.3 nM total enzyme, 20 μM substrate BML-K1104; 2. HDAC 2, 1.5 nM total enzyme, 40 μM substrate BML-K1104; 3. HDAC 3/SMRT, 0.3 nM total enzyme, 20 μM substrate BML-K1104; 4. HDAC 6, 1.3 nM total enzyme, 2.5 μM substrate BML-K1104; 5. HDAC 8, 1.3 nM total enzyme, 200 μM substrate BML-K1178; the final high dose of test compound was 30 μM. For potent compounds, 900 nM was used as the final high dose. The reactions were stopped and developed by addition of 30 ul of HDAC developer solution containing a saturating level of HDAC inhibitor as follows: 1.
Regarding `COc1nc2ccccc2cc1-c1cnc([C@H](COCCCC(=O)c2ncco2)NC(=O)CN(C)C)[nH]1` [Compound 13, N-{(1R)-1-[5-(2-methoxyquinolin-3-yl)-1H-imidazol-2-yl]-2-[4-(1,3-oxazol-2-yl)-4-oxobutoxy]ethyl}-N~2~,N~2~- dimethylglycinamide], the IC50 was determined as 17 µM.
Then `COc1nc2ccccc2cc1-c1cnc([C@H](COCCCC(=O)c2ncco2)NC(=O)C23CCN(CC2)CC3)[nH]1` [Compound 12, N-{(1R)-1-[5-(2-methoxyquinolin-3-yl)-1H-imidazol-2-yl]-2-[4-(1,3-oxazol-2-yl)-4-oxobutoxy]ethyl}-1-azabicyclo[2.2.2]octane-4-carboxamide], with 5.55 µM; and `COc1cc2nc(C)ccc2cc1-c1cnc([C@H](COCCCC(=O)c2cc(C)on2)NC(=O)[C@H]2CC23CCN(C)CC3)[nH]1` [Compound 20, (1S)-N-{(1R)-1-[5-(7-methoxy-2-methylquinolin-6-yl)-1H-imidazol-2-yl]-2-[4-(5-methylisoxazol-3-yl)-4-oxobutoxy]ethyl}-6-methyl-6-azaspiro[2.5]octane-1-carboxamide], with > 0.9 µM; and `Cc1ccc2cc(-c3cnc([C@H](CSCCCC(=O)c4ncco4)NC(=O)[C@H]4CC45CCN(C)CC5)[nH]3)ccc2n1` [Compound 21, (1S)-6-methyl-N-[(1R)-1-[5-(2-methylquinolin-6-yl)-1H-imidazol-2-yl]-2-{[4-(1,3-oxazol-2-yl)-4-oxobutyl]sulfanyl}ethyl]-6-azaspiro[2.5]octane-1-carboxamide], with 1.05 µM.
For `COc1nc2ccccc2cc1-c1cnc([C@H](COCCCC(=O)c2ccon2)NC(=O)CN(C)C)[nH]1` [Compound 14, N-{(1R)-2-(4-isoxazol-3-yl-4-oxobutoxy)-1-[5-(2-methoxyquinolin-3-yl)-1H-imidazol-2-yl]ethyl}-N~2~,N~2~- dimethylglycinamide], the IC50 was found to be 1.76 µM.
As for `CCC(=O)CCCOC[C@H](NC(=O)C12CCN(CC1)CC2)c1ncc(-c2cc3ccccc3nc2OC)[nH]1` [Compound 6, N-{(1R)-1-[5-(2-methoxyquinolin-3-yl)-1H-imidazol-2-yl]-2-[(4-oxohexyl)oxy]ethyl}-1-azabicyclo[2.2.2]octane-4-carboxamide], the IC50 is > 45 µM.
Then `CN1CC(C(=O)N[C@@H](COCCCC(=O)c2ccon2)c2ncc(-c3ccccc3F)[nH]2)C1` [Compound 15, N-[(1R)-1-[5-(2-fluorophenyl)-1H-imidazol-2-yl]-2-(4-isoxazol-3-yl-4-oxobutoxy)ethyl]-1-methylazetidine-3-carboxamide], with > 0.9 µM; and `CN1CCC2(CC1)C[C@@H]2C(=O)N[C@@H](COCCCC(=O)c1ccon1)c1[nH]c(-c2ccc(F)cc2)nc1Cl` [Compound 18, (1S)-N-[(1R)-1-[4-chloro-2-(4-fluorophenyl)-1H-imidazol-5-yl]-2-(4-isoxazol-3-yl-4-oxobutoxy)ethyl]-6-methyl-6-azaspiro[2.5]octane-1-carboxamide], with > 0.9 µM.
In the case of `CN(C)CC(=O)N[C@@H](COCCCC(=O)c1ccon1)c1[nH]c(-c2ccc(F)cc2)nc1Cl` [Compound 17, N-[(1R)-1-[4-chloro-2-(4-fluorophenyl)-1H-imidazol-5-yl]-2-(4-isoxazol-3-yl-4-oxobutoxy)ethyl]-N~2~,N~2~- dimethylglycinamide], the IC50 is > 0.9 µM.
For `CNC(=O)C(=O)CCCOC[C@H](NC(=O)C12CCN(CC1)CC2)c1ncc(-c2cc3ccccc3nc2OC)[nH]1` [Compound 9, N-[(1R)-1-[5-(2-methoxyquinolin-3-yl)-1H-imidazol-2-yl]-2-{[5-(methylamino)-4,5-dioxopentyl]oxy}ethyl]-1-azabicyclo[2.2.2]octane-4-carboxamide] the value was 3.37 µM; for `COc1nc2ccccc2cc1-c1cnc([C@H](COCCCC(=O)c2ncco2)NC(=O)c2cncs2)[nH]1` [Compound 10, N-{(1R)-1-[5-(2-methoxyquinolin-3-yl)-1H-imidazol-2-yl]-2-[4-(1,3-oxazol-2-yl)-4-oxobutoxy]ethyl}-1,3-thiazole-5-carboxamide], 1.38 µM.
Then `N[C@@H](COCCCC(=O)c1ccon1)c1ncc(-c2ccccc2F)[nH]1` [Compound 2, (R)-4-(2-amino-2-(5-(2-fluorophenyl)-1H-imidazol-2-yl)ethoxy)-1-(isoxazol-3-yl)butan-1-one], with > 0.9 µM; and `CNC(=O)C(=O)CCCOC[C@H](NC(=O)c1cncs1)c1ncc(-c2cc3ccccc3nc2OC)[nH]1` [Compound 8, N-[(1R)-1-[5-(2-methoxyquinolin-3-yl)-1H-imidazol-2-yl]-2-{[5-(methylamino)-4,5-dioxopentyl]oxy}ethyl]-1,3-thiazole-5-carboxamide], with 3.86 µM; and `CN1CC(C(=O)N[C@@H](COCCCC(=O)c2ccon2)c2[nH]c(-c3ccc(F)cc3)nc2Cl)C1` [Compound 16, N-[(1R)-1-[4-chloro-2-(4-fluorophenyl)-1H-imidazol-5-yl]-2-(4-isoxazol-3-yl-4-oxobutoxy)ethyl]-1-methylazetidine-3-carboxamide], with > 0.9 µM.
On to `COc1nc2ccccc2cc1-c1cnc([C@H](COCCCC(=O)c2ncco2)NC(=O)[C@H]2CC23CCN(C)CC3)[nH]1` [Compound 11, (1S)-N-{(1R)-1-[5-(2-methoxyquinolin-3-yl)-1H-imidazol-2-yl]-2-[4-(1,3-oxazol-2-yl)-4-oxobutoxy]ethyl}-6-methyl-6-azaspiro[2.5]octane-1-carboxamide], for which the IC50 came out at 7.78 µM.
Then `CCC(=O)CCCOC[C@H](NC(=O)c1cncs1)c1ncc(-c2cc3ccccc3nc2OC)[nH]1` [Compound 5, N-{(1R)-1-[5-(2-methoxyquinolin-3-yl)-1H-imidazol-2-yl]-2-[(4-oxohexyl)oxy]ethyl}-1,3-thiazole-5-carboxamide], with 2.72 µM; and `CCC(=O)CCCOC[C@H](NC(=O)[C@H]1CC12CCN(CC)CC2)c1ncc(-c2cc3ccccc3nc2OC)[nH]1` [Compound 7, (1S)-6-ethyl-N-{(1R)-1-[5-(2-methoxyquinolin-3-yl)-1H-imidazol-2-yl]-2-[(4-oxohexyl)oxy]ethyl}-6-azaspiro[2.5]octane-1-carboxamide], with > 45 µM.
Then `COc1cc2nc(C)ccc2cc1-c1cnc([C@H](COCCCC(=O)c2cc(C)on2)NC(=O)C2CN(C)C2)[nH]1` [Compound 19, N-{(1R)-1-[5-(7-methoxy-2-methylquinolin-6-yl)-1H-imidazol-2-yl]-2-[4-(5-methylisoxazol-3-yl)-4-oxobutoxy]ethyl}-1-methylazetidine-3-carboxamide], with > 0.9 µM.
